Columns and labels:
VTA DA neurons [1] = experiment: Miniature EPSCs in VTA DA neuron, patch-clamp whole-cell recording in VTA slice; assay type: cell-based
Description: Thus, the effect of /-THP on this nicotine-induced EPSC enhancement was studied. […] Co-application of 10 μM /-THP abolished nicotine-induced enhancement of mEPSCs (see, FIGS. 5A and 5C).

human α4β2-nAChR [2] = target: T1, human α4β2-nAChR (Homo sapiens, UniProt P17787+P43681); experiment: Whole-cell patch-clamp of human α4β2-nAChR-mediated currents in transfected SH-EP1 cells; assay type: cell-based; settings: for ACh-induced currents, peak current component / ACh-induced currents, steady-state component: 30 μM co-applied with 1 mM ACh; for 1 mM ACh-induced whole-cell currents: 1 min pretreatment
T1 construct: expressed in transfected cells; host or cells: human SH-EP1 cell line
Description: The effects of THPBs on α4β2-nAChR function were evaluated in vitro. Specifically, whole-cell patch-clamp recording technique was employed in α4β2-nAChRs transfected with a human SH-EP1 cell-line. FIG. 1A provides graphs illustrating the effects of a 1 min pre-treatment of 30 μM /-THP, d/-THB or /-SPD on 1 mM ACh-induced current in SH-EP1 cell line.
Thus, when THPBs are co-applied with an agonist, it affects receptor function after agonist opens channels.
(§1) The effects of THB-induced inhibition on the α4β2-nAChR function were evaluating using human α4β2-nAChRs (transfected to SH-EP1 cells) and rat α4β2-nAChRs natively expressed in VTA DA neurons. The 30 μM THB (without pretreatment) inhibited both types (human and rat) of α4β2-nAChR function, and compared to peak current, the steady-state current portion was more sensitive to THB (FIGS. 3A-3C).
The effect of different concentrations of THB on 1 mM ACh-induced whole-cell currents were further examined in human α4β2-nAChRs in SH-EP1 cells. […] The steady-state current was more sensitive to THB than the peak current.
FIG. 9A provides a graph of traces of co-application of THB6 on ACh-induced current. FIG. 9B provides a graph of traces of the effect of 1 min pretreatment of THB6 on ACh-induced current. […] Each bar of the bar graph presented in FIG. 9C represents the mean from 4 cells and vertical bars indicate +Se. A ^“*” was given to indicate p<0.05, while a ^“***” was given to indicate p<0.001 in FIG. 9C. Data was analyzed with One-Way ANOVA.
A dosage containing 100 μM THB6 compound was evaluated on human and mouse α4β2-nAChR-mediated currents. FIG. 10A provides a graph of traces of ACh-induced whole-cell currents in human α4β2-nAChRs transfected in human SH-EP1 cells. FIG. 10B provides a graph of traces of ACh-induced whole-cell currents in mouse α4β2-nAChRs transfected in VTA dopamine neurons. […] Each bar in the bar graph of FIG. 10C represents the mean from 4 cells and vertical bars indicate +SE. A ^“*” was given to indicate p<0.05. A ^“***” was given to indicate p<0.001 in FIG. 9C. Data was analyzed with One-Way ANOVA.

male C57BL/6 mice = experiment: Nicotine-induced conditioned place preference (CPP); assay type: in vivo, mouse
Description: A conventional biased CPP was performed on male C57BL/6 mice. Mice were put into two-compartment CPP apparatus (Med Associate Inc. VT) for accommodation once (20 min) a day for 3 days and for monitoring the preference to any specific side of compartment. Mice were divided into 3 groups (5 mice per group) and received 2 training sessions per day for 4 days.
When the mouse received a saline injection, it was placed into the opposite side for 20 min. […] Alternatively, the mice of the second group received saline injection and placed into the opposite side. The third group of mice (the I-THP only group) received /-THP i.p. injection (10 mg/Kg) and were placed into the least preferred side for 20 min. Alternatively, the mice received a saline injection and were placed into the opposite side.
On the 5th day, mice were tested for place preference by allowing free access to both conditioning compartments for 20 minutes. The foregoing 4-day training session was repeated on the 6th day. Mice of group 1 received their treatments without change. […] Alternatively, the mice of group 2 received a saline injection and then received a saline injection 5 min later. After the saline injection, the mice of group 2 were placed into the opposite chamber for 4 days. On the 10th day, the mice were tested for place preference for 20 min (See, FIG. 8).

human α4β2-nAChR [3] = target: T1, human α4β2-nAChR; experiment: 3H-epibatidine (H-EBDN) binding and binding competition on heterologously expressed α4β2-nAChR; settings: FIG. 2A
human α4β2-nAChR [4] = target: T1, human α4β2-nAChR; experiment: 86Rb+ efflux assay, carbachol-induced response, heterologously expressed α4β2-nAChR; assay type: cell-based
rat α4β2-nAChRs = target: T2, rat α4β2-nAChRs (Rattus norvegicus, UniProt P09483+P12390); experiment: Whole-cell currents of rat α4β2-nAChRs natively expressed in VTA DA neurons; assay type: cell-based; settings: 30 μM, without pretreatment
T2 construct: rat α4β2-nAChRs natively expressed in VTA DA neurons; endogenous in cells; host or cells: rat VTA dopamine neurons
Description: as §1

VTA DA neurons [5] = experiment: In vivo VTA DA neuronal firing in anesthetized rats; design: species or system rat
Description: It was tested whether systemic injection of THB affected VTA DA neuron firing. As shown in FIGS. 6A-6C, injection of THB (1 mg/kg, i.v.) increased VTA DA neuron firing rate, bursting fraction (FIG. 6A), and slow oscillations (FIGS. 6B-6D). […] THB appears to eliminate nicotinic effect via its blockade of nAChRs. Therefore, the actions of THB are consistent with the double target hypothesis that THB blocks nAChRs (especially α4β2-nAChRs) and enhances DA release from VTA to DA neuronal targets.

VTA DA neurons [6] = experiment: Extracellular single unit recording of VTA DA neuron firing in anesthetized mice; assay type: in vivo, mouse
Description: The effect of systemic injection of THB6 on mouse VTA DA neuron firing was evaluated by applying 10 mg/kg via an IV to anesthetized mice and extracellular single unit recordings were performed. FIG. 12A provides an image of the VTA slice, showing the recording electrode track and recording site after the experiment. The location of the recording electrode track is depicted in FIG. 12B.

VTA DA neurons [7] = experiment: Action potential firing in mouse VTA slices, cell-attached patch recording; assay type: cell-based
Description: Based on the evaluation of a dosage containing THB6 compounds on VTA slices, it was determined that THB6 prevents nicotine-induced firing rate increase in VTA DA neurons. […] FIG. 11B is a bar graph showing the statistical result of the normalized firing rate of THB6 compounds.

mouse α4β2-nAChRs = target: T3, mouse α4β2-nAChRs (Mus musculus, UniProt O70174+Q9ERK7); experiment: ACh-induced whole-cell currents of mouse α4β2-nAChRs in VTA dopamine neurons; assay type: cell-based; settings: 100 μM
T3 construct: expressed in transfected cells; host or cells: VTA dopamine neurons
Description: A dosage containing 100 μM THB6 compound was evaluated on human and mouse α4β2-nAChR-mediated currents. FIG. 10A provides a graph of traces of ACh-induced whole-cell currents in human α4β2-nAChRs transfected in human SH-EP1 cells. FIG. 10B provides a graph of traces of ACh-induced whole-cell currents in mouse α4β2-nAChRs transfected in VTA dopamine neurons. […] FIGS. 10C and 10D provide bar graphs showing the statistic result that THB6 inhibits both peak and steady-state compounds of ACh-induced currents. Each bar in the bar graph of FIG. 10C represents the mean from 4 cells and vertical bars indicate +SE. A ^“*” was given to indicate p<0.05. A ^“***” was given to indicate p<0.001 in FIG. 9C. Data was analyzed with One-Way ANOVA.

mice = experiment: Mouse locomotor activity after systemic injection; assay type: in vivo
Description: Systemic injection of dosages containing THB6 to mice and the mice's locomotive activity was studied.

[8] = 1 mg/kg, i.v., anesthetized rats

COc1cc2c(cc1OC)[C@@H]1Cc3ccc(OC)c(OC)c3CN1CC2 [/-THP, /-tetrahydropalmatine]
nicotine-induced enhancement of mEPSCs (VTA DA neurons [1]; 10 μM co-applied with 1 μM nicotine): abolished
ACh-induced currents, peak current component (human α4β2-nAChR [2]; SH-EP1 cells): only mildly reduced
ACh-induced currents, steady-state component (human α4β2-nAChR [2]; SH-EP1 cells): suppressed
1 mM ACh-induced whole-cell currents (human α4β2-nAChR [2]; 30 μM, SH-EP1 cells): dramatically eliminated
IC50 (human α4β2-nAChR [2]; co-application with 1 mM ACh, SH-EP1 cells, n=8, read-out: IC50 value for current net charge): 5.2 µM
Hill coefficient (human α4β2-nAChR [2]; co-application with 1 mM ACh, current net charge): 0.4
nicotine rewarding effects after CPP has been established (male C57BL/6 mice; 10 mg/Kg i.p. 5 min before nicotine 1.5 mg/Kg): counteracts

/-stepholidine [/-SPD]
affinity in H-EBDN binding competition (human α4β2-nAChR [3]): lower affinity
ACh-induced currents, peak current component (human α4β2-nAChR [2]; SH-EP1 cells): only mildly reduced
ACh-induced currents, steady-state component (human α4β2-nAChR [2]; SH-EP1 cells): suppressed
1 mM ACh-induced whole-cell currents (human α4β2-nAChR [2]; 30 μM, SH-EP1 cells): dramatically eliminated
IC50 (human α4β2-nAChR [4]; FIG. 2B, read-out: IC50 value, carbachol-induced 86Rb+ efflux response): 30 µM

COc1ccc2c(c1OC)CN1CCc3cc4c(cc3C1C2)OCO4 (centres unmarked) [THB, tetrahydroberberine]
affinity in H-EBDN binding competition (human α4β2-nAChR [3]): high affinity
rat α4β2-nAChR function (ACh-induced currents) (rat α4β2-nAChRs): inhibited
ACh-induced currents, peak current component (human α4β2-nAChR [2]; SH-EP1 cells): only mildly reduced
ACh-induced currents, steady-state component (human α4β2-nAChR [2]; SH-EP1 cells): suppressed
1 mM ACh-induced whole-cell currents (human α4β2-nAChR [2]; 30 μM, SH-EP1 cells): dramatically eliminated
human α4β2-nAChR function (ACh-induced currents) (human α4β2-nAChR [2]; 30 μM, without pretreatment): inhibited
IC50 (human α4β2-nAChR [2]; IC50 value of Ip (peak current), 1 mM ACh-induced whole-cell currents, SH-EP1 cells): 2.2 µM
IC50 (human α4β2-nAChR [2]; IC50 value of Is (steady-state current), 1 mM ACh-induced whole-cell currents, SH-EP1 cells): 37 µM
IC50 (human α4β2-nAChR [4]): 7 µM
VTA DA neuron bursting fraction (VTA DA neurons [5]; [8]): increased
VTA DA neuron firing rate (VTA DA neurons [5]; [8]): increased
VTA DA neuron slow oscillations (VTA DA neurons [5]; [8]): increased
effect of nicotine on VTA DA firing rate and bursting fraction after THB (VTA DA neurons [5]; nicotine 0.5 mg/kg i.v. 5 min after THB injection): failed to increase

COc1ccc2c(c1OC)CN1CCc3cc4oc(=O)oc4cc3C1C2 (centres unmarked) [THB6]
neuronal firing rate, compound alone (VTA DA neurons [6]; 10 mg/kg IV, anesthetized mice): did not affect
nicotine-induced increase of firing rate (VTA DA neurons [6]; 10 mg/kg IV, anesthetized mice): prevented
DA neuronal firing, compound alone (VTA DA neurons [7]): did not affect
nicotine-induced firing increase (VTA DA neurons [7]): prevented
peak component of ACh-induced currents (human α4β2-nAChR [2]; 30 μM, with and without 1 min pretreatment, FIG. 9C): inhibiting
peak and steady-state components of ACh-induced currents, human α4β2-nAChRs (human α4β2-nAChR [2]; 100 μM, SH-EP1 cells): inhibits
peak and steady-state components of ACh-induced currents, mouse α4β2-nAChRs (mouse α4β2-nAChRs): inhibits
nicotine-induced increase of locomotor activity (mice; pretreatment): prevented
locomotor activity, compound alone (mice; systemic injection): did not alter

CN1CCCC1c1cccnc1 (centres unmarked) [nicotine]
mEPSC amplitude (VTA DA neurons [1]; FIG. 5D): did not affect
mEPSC frequency (VTA DA neurons [1]; bath application of 1 μM): significantly increased
neuronal firing rate at 2 minutes after injection (VTA DA neurons [6]; systemic injection, back to normal level after 8 minutes): increases
conditioned place preference (male C57BL/6 mice; 1.5 mg/Kg): induced significant CPP

— patent US20230096103A1, “BERBERINE COMPOUNDS, BERBERINE COMPOSITIONS, AND METHODS FOR ADMINISTRATION THEREOF” (Dignity Health, priority 2020, published 2023)
